Each structure is given as a SMILES string.

For this experiment, the target named is T1, GlyT1 (Homo sapiens, UniProt P48067).
T1 construct: expressed in transfected cells
T1 sequence (P48067 1-706): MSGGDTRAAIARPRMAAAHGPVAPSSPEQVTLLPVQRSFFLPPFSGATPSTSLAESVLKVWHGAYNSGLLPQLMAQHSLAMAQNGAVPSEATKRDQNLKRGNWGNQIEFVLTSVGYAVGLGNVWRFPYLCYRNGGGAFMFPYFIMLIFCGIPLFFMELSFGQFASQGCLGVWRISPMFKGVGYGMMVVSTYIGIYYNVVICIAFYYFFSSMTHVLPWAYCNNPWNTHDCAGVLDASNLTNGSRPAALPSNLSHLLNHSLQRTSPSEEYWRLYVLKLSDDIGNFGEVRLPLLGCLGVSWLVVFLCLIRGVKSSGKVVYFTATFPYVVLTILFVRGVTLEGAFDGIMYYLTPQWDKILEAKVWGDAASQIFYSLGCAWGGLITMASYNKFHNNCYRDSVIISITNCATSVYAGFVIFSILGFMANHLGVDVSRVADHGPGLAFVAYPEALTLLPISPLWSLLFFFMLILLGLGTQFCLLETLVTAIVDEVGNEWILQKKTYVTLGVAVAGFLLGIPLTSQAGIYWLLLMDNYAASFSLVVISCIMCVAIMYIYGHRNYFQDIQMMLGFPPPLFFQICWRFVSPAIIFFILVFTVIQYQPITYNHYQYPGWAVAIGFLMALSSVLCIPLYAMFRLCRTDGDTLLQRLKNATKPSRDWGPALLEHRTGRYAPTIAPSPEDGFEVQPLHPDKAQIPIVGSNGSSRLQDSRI
Nature of the experiment: Glycine Transporter 1 (GlyT1) uptake assay, scintillation proximity assay of [14C]-glycine uptake. As to conditions: SPA, four parameter logistic fit, read-out: GlyT1 (pIC50) (converted). In kind it is cell-based. Put shortly: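 [14C]-glycine uptake read by scintillation proximity on a plate counter. IC50 from four-parameter logistic fit of dose-response data.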
For orientation: In a scintillation proximity assay essentially only radioactivity close to the scintillant gives light.
For the compound `CS(=O)(=O)c1ccc(N2CCC(F)(F)CC2)c(C(=O)N2Cc3cn(CC4CCC4)nc3C2)c1` [Example 431, 1-{2-[2-(Cyclobutylmethyl)-2H 4H 5H 6H-pyrrolo[3,4-c]pyrazole-5-carbonyl]-4-methanesulfonylphenyl}-4 4-difluoropiperidine], the IC50 is below 100 nM.

Consider `COc1c(C#N)ccc(O[C@@H](C)C(F)(F)F)c1C(=O)N1CCc2nn(-c3ccncc3F)cc2C1` [Example 245, 3-[2-(3-Fluoropyridin-4-yl)-2H 4H 5H 6H 7H-pyrazolo[4,3-c]pyridine-5-carbonyl]-2-methoxy-4-{[(2S)-1 1 1-trifluoropropan-2-yl]oxy}benzonitrile], for which the IC50 is below 100 nM.

With `C[C@H](Oc1ccc(C#N)c(Cl)c1C(=O)N1CCc2[nH]nc(-c3ccc(C(F)(F)F)cc3)c2C1)C(F)(F)F` [Example 255, 2-Chloro-3-{3-[4-(trifluoromethyl)phenyl]-1H 4H 5H 6H 7H-pyrazolo[4,3-c]pyridine-5-carbonyl}-4-{[(2S)-1 1 1-trifluoropropan-2-yl]oxy}benzonitrile], the IC50 was 1000 to 10000 nM.

Regarding `CS(=O)(=O)c1ccc(-c2ccccc2)c(C(=O)N2Cc3cn(-c4ccc(F)cn4)nc3C2)c1` [Example 566, 5-Fluoro-2-[5-(5-methanesulfonyl-2-phenylbenzoyl)-2H 4H 5H 6H-pyrrolo[3,4-c]pyrazol-2-yl]pyridine], the IC50 is below 100 nM.

As for `COc1c(C#N)ccc(OC(C)C)c1C(=O)N1Cc2cn(-c3ccc(F)c(C)n3)nc2C1` [Example 535, 3-[2-(5-Fluoro-6-methylpyridin-2-yl)-2H 4H 5H 6H-pyrrolo[3,4-c]pyrazole-5-carbonyl]-2-methoxy-4-(propan-2-yloxy)benzonitrile], the IC50 is below 100 nM.

As for `CC(C)(C)COc1ccc(S(C)(=O)=O)cc1C(=O)N1Cc2cn(-c3ccccc3F)nc2C1` [Example 63, 5-[2-(2 2-Dimethylpropoxy)-5-methanesulfonylbenzoyl]-2-(2-fluorophenyl)-2H 4H 5H 6H-pyrrolo[3,4-c]pyrazole], the IC50 was below 100 nM.

For the compound `Cc1cccc(-n2cc3c(n2)CN(C(=O)c2cc(S(C)(=O)=O)ccc2N2CCC(F)(F)CC2)C3)c1` [Example 110, 4 4-Difluoro-1-{4-methanesulfonyl-2-[2-(3-methylphenyl)-2H 4H 5H 6H-pyrrolo[3,4-c]pyrazole-5-carbonyl]phenyl}piperidine], the IC50 is below 100 nM.

Take `COc1c(C#N)ccc(C2(F)COC2)c1C(=O)N1CCc2nn(-c3ccccc3)cc2C1` [Example 487]: the IC50 was 1000 to 10000 nM.

`CC(C)Oc1ccc(C#N)cc1C(=O)N1Cc2cn(-c3ccncc3)nc2C1` [Example 447, 4-(Propan-2-yloxy)-3-[2-(pyridin-4-yl)-2H 4H 5H 6H-pyrrolo[3,4-c]pyrazole-5-carbonyl]benzonitrile]: the IC50 is below 100 nM.

For `COc1c(C#N)ccc(C2(F)CCOCC2)c1C(=O)N1Cc2cn(-c3cncc(F)c3)nc2C1` [Example 24, 4-(4-Fluorooxan-4-yl)-3-[2-(5-fluoropyridin-3-yl)-2H 4H 5H 6H-pyrrolo[3,4-c]pyrazole-5-carbonyl]-2-methoxybenzonitrile], the IC50 was 100 to 1000 nM.

`COc1c(C#N)ccc(C2(OC)CCC2)c1C(=O)N1CCc2nn(-c3ccc(F)cc3)cc2C1` [Example 493, 3-[2-(4-Fluorophenyl)-2H 4H 5H 6H 7H-pyrazolo[4,3-c]pyridine-5-carbonyl]-2-methoxy-4-(1-methoxycyclobutyl)benzonitrile]: the IC50 is 1000 to 10000 nM.

In the case of `CC(C)(C)COc1ccc(S(C)(=O)=O)cc1C(=O)N1Cc2cn(-c3ccc(F)c(C(F)F)c3)nc2C1` [Example 77, 2-[3-(Difluoromethyl)-4-fluorophenyl]-5-[2-(2 2-dimethylpropoxy)-5-methanesulfonylbenzoyl]-2H 4H 5H 6H-pyrrolo[3,4-e]pyrazole], the IC50 is below 100 nM.

On to `CS(=O)(=O)c1ccc(-c2cccc(F)c2)c(C(=O)N2Cc3cn(C4CCOCC4)nc3C2)c1` [Example 448, 5-[2-(3-Fluorophenyl)-5-methanesulfonylbenzoyl]-2-(oxan-4-yl)-2H 4H 5H 6H-pyrrolo[3,4-c]pyrazole], for which the IC50 was below 100 nM.

For `C[C@H](Oc1ccc(C#N)cc1C(=O)N1Cc2cn(C3CCCCC3)nc2C1)C(F)(F)F` [Example 402, 3-{2-Cyclohexyl-2H 4H 5H 6H-pyrrolo[3,4-c]pyrazole-5-carbonyl}-4-{[(2S)-1 1 1-trifluoropropan-2-yl]oxy}benzonitrile], the IC50 was 100 to 1000 nM.

Regarding `C[C@H](Oc1ccc(C#N)cc1C(=O)N1Cc2cn(CC3CC3(F)F)nc2C1)C(F)(F)F` (stereo partly drawn) [Example 457, 3-{2-[(2 2-Difluorocyclopropyl)methyl]-2H 4H 5H 6H-pyrrolo[3,4-c]pyrazole-5-carbonyl}-4-{[(2S)-1 1 1-trifluoropropan-2-yl]oxy}benzonitrile], the IC50 is 100 to 1000 nM.

As for `CS(=O)(=O)c1ccc(-c2cccc(F)c2)c(C(=O)N2Cc3cnn(CC(F)(F)F)c3C2)c1` [Example 445, 5-[2-(3-Fluorophenyl)-5-methanesulfonylbenzoyl]-1-(2 2 2-trifluoroethyl)-1H 4H 5H 6H-pyrrolo[3,4-c]pyrazole], the IC50 was 100 to 1000 nM.

Consider `CC(C)(C)COc1ccc(S(C)(=O)=O)cc1C(=O)N1Cc2cn(-c3cccc(C(F)(F)F)c3)nc2C1` [Example 50, 5-[2-(2 2-Dimethylpropoxy)-5-methanesulfonylbenzoyl]-2-[3-(trifluoromethyl)phenyl]-2H 4H 5H 6H-pyrrolo[3,4-c]pyrazole], for which the IC50 is below 100 nM.

Turning to `CC(Oc1ccc(C#N)c(Cl)c1C(=O)N1CCc2nn(-c3ccccn3)cc2C1)C(F)(F)F` (stereo not shown) [Example 216, 2-Chloro-3-[2-(pyridin-2-yl)-2H 4H 5H 6H 7H-pyrazolo[4,3-c]pyridine-5-carbonyl]-4-[(1 1 1-trifluoropropan-2-yl)oxy]benzonitrile], the IC50 is 100 to 1000 nM.

Take `CC(Oc1ccc(S(C)(=O)=O)cc1C(=O)N1CCc2c(cnn2-c2cccc(C(F)(F)F)c2)C1)C(F)(F)F` (stereo not shown) [Example 162, 5-{5-Methanesulfonyl-2-[(1 1 1-trifluoropropan-2-yl)oxy]benzoyl}-1-[3-(trifluoromethyl)phenyl]-1H 4H 5H 6H 7H-pyrazolo[4,3-c]pyridine]: the IC50 is 100 to 1000 nM.

For `CC(C)Oc1ccc(S(C)(=O)=O)cc1C(=O)N1Cc2cn(-c3cc(Cl)ccc3F)nc2C1` [Example 62, 2-(5-Chloro-2-fluorophenyl)-5-[5-methanesulfonyl-2-(propan-2-yloxy)benzoyl]-2H 4H 5H 6H-pyrrolo[3,4-c]pyrazole], the IC50 is below 100 nM.

For `COc1c(C#N)ccc(OC(C)C(F)(F)F)c1C(=O)N1CCc2nn(-c3ccc(F)cn3)cc2C1` (stereo not shown) [Example 202, 3-[2-(5-Fluoropyridin-2-yl)-2H 4H 5H 6H 7H-pyrazolo[4,3-c]pyridine-5-carbonyl]-2-methoxy-4-[(1 1 1-trifluoropropan-2-yl)oxy]benzonitrile], the IC50 is 100 to 1000 nM.

For the compound `COCCCn1ncc2c1CN(C(=O)c1cc(C#N)ccc1O[C@@H](C)C(F)(F)F)C2` [Example 392, 3-[1-(3-Methoxypropyl)-1H 4H 5H 6H-pyrrolo[3,4-c]pyrazole-5-carbonyl]-4-{[(2S)-1 1 1-trifluoropropan-2-yl]oxy}benzonitrile], the IC50 was above 10000 nM.

As to `Cc1ncc(F)cc1-n1cc2c(n1)CN(C(=O)c1cc(C#N)ccc1O[C@@H](C)C(F)(F)F)C2` [Example 354, 3-[2-(5-Fluoro-2-methylpyridin-3-yl)-2H 4H 5H 6H-pyrrolo[3,4-c]pyrazole-5-carbonyl]-4-{[(2S)-1 1 1-trifluoropropan-2-yl]oxy}benzonitrile], the IC50 was 1000 to 10000 nM.

Regarding `CCc1cc(-n2cc3c(n2)CN(C(=O)c2cc(S(=O)(=O)CC)ccc2O[C@@H](C)C(F)(F)F)C3)ccn1` [Example 134, 4-{5-[5-(Ethanesulfonyl)-2-{[(2S)-1 1 1-trifluoropropan-2-yl]oxy}benzoyl]-2H 4H 5H 6H-pyrrolo[3,4-c]pyrazol-2-yl}-2-ethylpyridine], the IC50 is below 100 nM.

Regarding `Cc1cc(-n2cc3c(n2)CCN(C(=O)c2c(OC(C)C(F)(F)F)ccc(C#N)c2Cl)C3)ccn1` (stereo not shown) [Example 226, 2-Chloro-3-[2-(2-methylpyridin-4-yl)-2H 4H 5H 6H 7H-pyrazolo[4,3-c]pyridine-5-carbonyl]-4-[(1 1 1-trifluoropropan-2-yl)oxy]benzonitrile], the IC50 was below 100 nM.

With `COc1c(C#N)ccc(C2(F)CCOCC2)c1C(=O)N1Cc2cn(-c3cccc(C)n3)nc2C1` [Example 21, 4-(4-Fluorooxan-4-yl)-2-methoxy-3-[2-(6-methylpyridin-2-yl)-2H 4H 5H 6H-pyrrolo[3,4-e]pyrazole-5-carbonyl]benzonitrile], the IC50 is 100 to 1000 nM.

In the case of `N#Cc1ccc(OCC2(C(F)(F)F)CC2)c(C(=O)N2CCc3nn(-c4ccc(F)cc4)cc3C2)c1Cl` [Example 509, 2-Chloro-3-[2-(4-fluorophenyl)-2H 4H 5H 6H 7H-pyrazolo[4,3-c]pyridine-5-carbonyl]-4-{[1-(trifluoromethyl)cyclopropyl]methoxy}benzonitrile], the IC50 is 100 to 1000 nM.

As for `C[C@H](Oc1ccc(S(C)(=O)=O)cc1C(=O)N1Cc2cn(CC3CC(F)(F)C3)nc2C1)C(F)(F)F` [Example 463], the IC50 is below 100 nM.
